This is an account of results in patent publication US20260327250A1, “3-ETHYLAMINO-INDOLE DIMERS AS SEROTONERGIC AGENTS USEFUL FOR THE TREATMENT OF DISORDERS RELATED THERETO” (MINDSET PHARMA INC., priority 2022, published 2026).

The structures appear in SMILES notation. Where a name gives a salt, the structure may show the parent alone. Read-outs that look alike come from different tables or passages of the source.

Series [1] deals with human 5-HT2A receptor (Homo sapiens, UniProt P28223). The series is described as follows: Human 5-HT2A radioligand binding assay ([3H]-ketanserin). As for the experimental part:
The objective of this study was to evaluate the binding properties of exemplary compounds of Formula I on 5-hydroxytryptamine receptor 2A (5-HT2A).
• 1. The assay buffer was prepared following the table below.
UniFilter-96 GF/B plate was pretreated: • i. 50 μl/well of 0.5% (v/v) PEI was added to UniFilter-96 GF/C plates. The plates were sealed and incubated at 4° C. for 3 hrs. • ii. After incubation, the plates were washed 3 times with ice-cold wash buffer (50 mM Tris, pH7.4). • 4. […] Cell membrane was diluted with assay buffer and 330 μl/well was added to 96 round deep well plates to reach a concentration of 20 μg/well. • ii. 8 concentrations of reference or test compounds were prepared and 110 μl/well was added to 96 round deep well plates. • iii. […] The plate was centrifuged at 1000 rpm for 30 secs and then agitated at 600 rpm, R.T. for 5 min. • 6. […] The filter plates were sealed and 40 μl/well of scintillation cocktail was added. • 10. The plate was read by using a Microbeta^2 microplate counter.
• 1. […] The IC50 was determined by fitting percentage of inhibition as a function of compound concentrations with Hill equation using XLfit.

The target of series [2] is T1, human 5-hydroxytryptamine receptor 1A (5-HT1A) (Homo sapiens, UniProt P08908).
T1 construct: expressed in transfected cells; host or cells: HTR1A&Ga15-CHO
T1 sequence (P08908 1-422): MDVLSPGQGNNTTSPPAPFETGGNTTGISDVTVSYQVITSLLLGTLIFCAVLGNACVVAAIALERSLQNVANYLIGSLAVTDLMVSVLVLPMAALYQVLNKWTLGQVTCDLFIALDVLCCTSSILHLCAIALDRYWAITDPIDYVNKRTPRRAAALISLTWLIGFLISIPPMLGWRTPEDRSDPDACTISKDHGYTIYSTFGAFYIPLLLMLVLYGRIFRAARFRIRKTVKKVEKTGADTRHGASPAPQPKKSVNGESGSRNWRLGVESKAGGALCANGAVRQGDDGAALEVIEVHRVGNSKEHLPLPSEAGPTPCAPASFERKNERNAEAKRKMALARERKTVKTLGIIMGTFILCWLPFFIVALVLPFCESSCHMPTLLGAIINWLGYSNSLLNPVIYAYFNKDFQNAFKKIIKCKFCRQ
The series is described as follows: Human 5-HT1A functional FLIPR assay (agonist mode). The class given is cell-based. The following applies: footnote: Curve fitting with activation (%) @ 10 mM with RFU. As for the experimental part:
The potential excitatory effects of compounds targeting on 5-hydroxytryptamine receptor 1A under agonist mode was assessed.
HTR1A&Ga15-CHO cells were cultured in DMEM/F12 medium containing 10% dialyzed FBS, 1× penicillin-streptomycin and 600 μg/mL Hygromycin B. The cells were passaged about three times a week, maintained between […] confluence.
• 1. The cell culture medium (DMEM/F12 medium containing 10% dialyzed FBS, 1× penicillin-streptomycin and 600 μg/mL Hygromycin B), TrypLE™ Express and DPBS was warmed to R.T. in advance. • 2. The cell culture medium was removed from the flask. The cells were washed with DPBS. • 3. 1 mL TrypLE™ Express was added to the flask, mixed well by gentle shaking and then cells were incubated at 37° C. for a few minutes. • 4. The cells morphological change was checked under microscope, and the digestion stopped by adding 2 mL cell culture medium to the flask when most of cells turned to round. • 5. The cell suspension was transferred into a 15 mL centrifuge tube, and then centrifuged at 1,200 rpm for 5 minutes. • 6. The supernatant was removed. The cell pellet was resuspended with 2 mL cell culture medium. • 7. The cell density was counted using cell counter. Only cells with >85% viability were used for the assay. • 8. The cells were diluted to 4×10^5/mL with cell culture medium. • 9. 30 μL/well cell suspensions were added into a 384-well cell plate (The cell density was 12,000 cells/well). • 10. The cell plate was incubated overnight at 37° C., 5% (v/v) CO2. 3.3 Cell handling • 1. On the day of experiments, culture medium was removed from the cell plate. • 2. 10 μL of assay buffer (20 mM HEPES, in 1× HBSS, pH 7.4) was added to each well of the cell plate. • 3. 2× dye solution was prepared following the manufacture's instruction of the FLIPR® Calcium 6 assay kit: • i. The dye was diluted with assay buffer. • ii. Probenecid was added to the final concentration of 5 mM. • iii. Vigorously vortex for 1-2 minutes, and pH was adjusted to 7.4. • 4. 10 μL of 2× dye solution was added to each well of the cell plate. • 5. The cell plate was placed on plate shaker, followed by shaking at 600 rpm for 2 minutes. • 6. The plate at 37° C. was incubated for 2 hours followed by an additional 15-minute incubation at 25° C.
• 1. Serotonin was prepared to the concentration of 10 mM with DMSO, 3-folds serial dilutions were performed with DMSO. • 2. The test compounds were prepared to the concentration of 10 mM with DMSO, 3-folds serial dilutions were performed with DMSO. • 3. The compounds were added to a 384-well compound source plate. • 4. 90 nL/well of serial diluted compounds were transferred from source plate to a 384-well compound plate by using an Echo. • 5. 30 μL/well of assay buffer was added to the compound plate. • 6. The plate-on-plate shaker was mixed for 2 minutes.
• 1. After the cells had incubated with dye solution, the cell plate, compound plate containing 3×compounds and FLIPR tips were placed into FLIPR. • 2. 10 μL of 3×compounds were transferred from the compound plate to the cell plate by FLIPR. • 3. The plate was read for 160 sec with 1 sec interval to obtain the data of agonist mode.
• 1. The normalized fluorescence reading (RFU) was calculated as shown below, wherein Fmax and Fmin stand for maximum and minimum of calcium signal during defined time window:
2. EC50 was calculated by fitting RFU against log of compound concentrations with Hill equation using XLfit.

The nature of series [3]: in vitro. The following applies: human, microsomes.
Description: The concentrations of parent compounds in reaction systems were evaluated by LC-MS/MS for estimating the stability in pooled human, male rat and male mouse liver microsomes. The in vitro intrinsic clearances of test compounds were determined as well. Protocol
A master solution in the “Incubation Plate” containing phosphate buffer, ultra-pure H2O, MgCl2 solution and liver microsomes was made according to Table 6. The mixture was pre-warmed at 37° C. water bath for 5 minutes.
The reaction was started with the addition of 4 μL of 200 μM exemplary test compounds of the application or control compounds to each master solution to get the final concentration of 2 μM. This study was performed in duplicate.
Aliquots of 50 μL were taken from the reaction solution at 0, 15, 30, 45 and 60 minutes. The reaction solutions were stopped by the addition of 4 volumes of cold methanol with IS (100 nM alprazolam, 200 nM imipramine, 200 nM labetalol and 2 μM ketoprofen). Samples were centrifuged at 3,220 g for 40 minutes. Aliquot of 90 μL of the supernatant was mixed with 90 μL of ultra-pure H2O and then was used for LC-MS/MS analysis.
All calculations were carried out using Microsoft Excel. Peak area ratios of test compound to internal standard (listed in the below table) were determined from extracted ion chromatograms.
All calculations were carried out using Microsoft Excel. Peak areas were determined from extracted ion chromatograms. The slope value, k, was determined by linear regression of the natural logarithm of the remaining percentage of the parent drug vs. incubation time curve.
The in vitro half-life (in vitro t½) was determined from the slope value:
Conversion of the in vitro t½ (min) into the in vitro intrinsic clearance (in vitro CLint, in μL/min/mg proteins) was done using the following equation (mean of duplicate determinations):
Where [4] appears, read: [3H]-ketanserin, 27° C., 90 min, read-out: h5-HT2A, IC50.
Where [5] appears, read: Remaining Percentage after 60 min, human liver microsomes, with cofactors.

human 5-HT2A receptor, sequence (P28223 whole entry): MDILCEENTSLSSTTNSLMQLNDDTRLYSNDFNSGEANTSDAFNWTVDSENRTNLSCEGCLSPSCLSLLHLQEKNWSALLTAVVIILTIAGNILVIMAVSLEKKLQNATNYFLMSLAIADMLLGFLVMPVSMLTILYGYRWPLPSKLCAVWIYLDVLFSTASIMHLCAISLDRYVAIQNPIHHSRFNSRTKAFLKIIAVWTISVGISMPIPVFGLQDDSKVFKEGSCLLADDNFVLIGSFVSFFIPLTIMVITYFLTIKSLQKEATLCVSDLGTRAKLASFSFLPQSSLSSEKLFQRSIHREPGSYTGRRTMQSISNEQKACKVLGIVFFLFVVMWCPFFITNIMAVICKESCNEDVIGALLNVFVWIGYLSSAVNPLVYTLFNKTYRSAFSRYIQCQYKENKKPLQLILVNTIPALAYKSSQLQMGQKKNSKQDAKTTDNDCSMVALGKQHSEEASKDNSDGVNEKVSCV

Broadly, the IC50 is the concentration that inhibits the measured activity by half. As for `CC(C)N(CCc1c[nH]c2cccc(O)c12)C(C)C` [Compound 7], the concentration for half-maximal inhibition (IC50) in series [1] (setting [4]) turned out to be 6410 nM. Besides, the “RFU@10 μM” value in series [2] worked out at 74 RFU.

For orientation: half-life means how long it takes for the measured level to halve. Read a high half-life as slow loss. Broadly, the microsomal CLint is the rate of metabolic loss divided by the concentration. A lower microsomal CLint goes with slow turnover. What is called amount remaining is the share of the starting amount still present when the sample was taken. With `CN(C)CCc1c[nH]c2cccc(OC(=O)CCCC(=O)Oc3cccc4[nH]cc(CCN(C)C)c34)c12` [Compound I-24, Bis(3-(2-(dimethylamino)ethyl)-1H-indol-4-yl) glutarate], in series [1] (setting [4]), the IC50 turned out to be 127 nM. Also, in series [2], the “RFU@10 μM” value was 169 RFU. In addition, in series [3], the half-life at 2 µM stood at 4.94 min and the microsomal CLint at 2 µM came to 281 µL/min/mg. In addition, in series [3] (setting [5]), the amount remaining at 1 h, 2 µM was determined as 0%. This molecule came in with a fraction remaining at 1 h, 2 µM in series [3] (Remaining Percentage after 60 min, human liver microsomes, without cofactors) of 1.08%.

For `CC(C)N(CCc1c[nH]c2cccc(OC(=O)CCCC(=O)Oc3cccc4[nH]cc(CCN(C(C)C)C(C)C)c34)c12)C(C)C` [Compound I-37, Bis(3-(2-(diisopropylamino)ethyl)-1H-indol-4-yl) glutarate dihydrochloride], the IC50 in series [1] came out at 547 nM. The “RFU@10 μM” value in series [2] came out at 62 RFU. In series [3], this molecule registered a half-life at 2 µM of less than 4.51 min; a microsomal CLint at 2 µM greater than 307 µL/min/mg; an amount remaining at 1 h, 2 µM of 0%.

As to `CN(C)CCc1c[nH]c2cccc(O)c12` [Psilocin, 4-hydroxy-N,N-dimethyltryptamine, reference compound], the “RFU@10 μM” value in series [2] came to 140 RFU. In addition, the share remaining at 1 h, 2 µM in series [3] (setting [5]) was 70.2%.

As for `CN(C)CCc1c[nH]c2cccc(OP(=O)(O)O)c12` [Psilocybin], the “RFU@10 μM” value in series [2] is reported as 143 RFU.
